Test system: pediatric AML patients
Assay: AML02 multicenter clinical trial, LDAC vs HDAC induction arms: MRD1, EFS and OS overall and by ACS10 score
Assay type: in vivo, human
Design: 3-year EFS / 4-year OS / 5-year OS / 4-year EFS / 5-year EFS / 3-year OS: unit not given here
Conditions: for Event-free Survival 5 years / Overall Survival 5 years: AML02 cohort
Procedure: One hundred and sixty-six pediatric AML patients treated under the multicenter AML02 clinical trial protocol were included in the study. Details of study design and clinical outcome have been described elsewhere. Briefly, patients with de novo AML were randomized to receive either high (3 g/m^2, given every 12 h on days 1, 3, and 5; this condition is designated “HDAC”) or low dose (100 mg/m^2 given every 12 h on days 1-10; this condition is designated “LDAC”) cytarabine along with daunorubicin (50 mg/m^2 on days 2, 4 and 6) and etoposide (100 mg/m^2 on days 2-6) as a first course of chemotherapy with subsequent treatment tailored to response and risk classification. For initial risk assignment, patients with cytogenetic translocations comprisingt [8;21] (e.g., translocation between chromosome 8 and 21), inv (16), ort [9;11] were classified as low-risk. Patients with features such as deletion of chromosome 7 (−7), presence of FLT3-ITD mutation (FLT-ITD), cytogenetic translocation comprisingt [6;9], megakaryoblastic leukemia (AMKL), treatment-related AML, or AML arising from MDS were classified as high-risk AML. Patients lacking any of the low or high-risk group features were provisionally classified as standard risk AML. Patient risk classifications were updated on the basis of minimal residual disease evaluations. Clinical endpoints used in this evaluation were defined as follows: i) Minimal residual disease after induction 1 (“MRD1”) (patients were defined as MRD positive if they had ≥1 leukemic cell per 1000 mononuclear bone marrow cells (≥0.1%); ii) Complete remission defined as trilineage hematopoietic recovery with less than 5% blasts in the marrow; iii) Event-free survival (“EFS”) defined as the time from study enrollment to induction failure, relapse, secondary malignancy, death, or study withdrawal for any reason, with event-free patients censored on the date of last follow-up; and iv) Overall survival (“OS”) defined as the time from study enrollment to death, with living patients censored on the date of last follow-up. St. Jude Institutional Review Board approved the study, and informed consent was obtained from parents/guardians and consents/assents from the individuals.
The association of MRD1, EFS, and OS was evaluated with ACS10 scores in the AML02 discovery cohort and the AAML0531 validation cohort. The Kaplan-Meier method was used to estimate the EFS and OS probabilities for well-defined groups of patients. Cox regression models were used to associate ACS10 with EFS and OS and used logistic regression models to associate ACS10 with MRD1. The Wilcoxon rank-sum test and Kruskal-Wallis test were used to compare medians of numeric variables across groups. Chi-square tests and Fisher's exact test were used to evaluate the association among pairs of categorical variables. All p-values are two-sided. All statistical analyses were performed using R software (www.r-project.org).
The multicenter AML02 clinical trial randomly assigned subjects to receive low dose ara-C (LDAC: 100 mg/m^2; n=91 patients) or high dose ara-C(HDAC: 3 g/m^2; n=75 patients) in combination with daunorubicin and etoposide as the first course of chemotherapy as described above in patient cohort section. Thus, the association of SNPs with outcome within each arm separately was also explored (Table 5).
Given patients in AML02 cohort were randomized to receive low or augmented high dose of ara-C, this unique opportunity was leveraged to evaluate performance of ACS10 score within the different ara-C dose treatment arms (of note LDAC and HDAC arms had similar distribution of patients across, disease characteristics, risk group, cytogenetics, race, gender etc. Table 3). […]

[1] = ACS10 score 0, risk-adjusted Cox model
[2] = ACS10 score 1, risk-adjusted Cox model
[3] = ACS10 score 2, risk-adjusted Cox model
[4] = ACS10 score 3, risk-adjusted Cox model
[5] = ACS10 score 4, risk-adjusted Cox model
[6] = ACS10 score 5, risk-adjusted Cox model
[7] = ACS10 score −1, risk-adjusted Cox model
[8] = ACS10 score −2, risk-adjusted Cox model
[9] = ACS10 score −3, risk-adjusted Cox model
[10] = ACS10 score −5, risk-adjusted Cox model
[11] = low ACS10 score (≤0) patients, AML02
[12] = number of patients per arm, after induction 1, AML02 cohort
[13] = patients with ACS10 score of +5, risk-adjusted Cox model
[14] = patients with ACS10 score of −5, risk-adjusted Cox model

## Nc1ccn([C@@H]2O[C@H](CO)[C@@H](O)[C@@H]2O)c(=O)n1 [LDAC, cytarabine]
[1]
  3-year EFS: 0.5527
  3-year OS: 0.7030
  4-year EFS: 0.5391
  4-year OS: 0.6960
  5-year EFS: 0.5316
  5-year OS: 0.6960
[2]
  3-year EFS: 0.6541
  3-year OS: 0.7604
  4-year EFS: 0.6423
  4-year OS: 0.7544
  5-year EFS: 0.6357
  5-year OS: 0.7544
[3]
  3-year EFS: 0.7393
  3-year OS: 0.8089
  4-year EFS: 0.7296
  4-year OS: 0.8039
  5-year EFS: 0.7242
  5-year OS: 0.8039
[4]
  3-year EFS: 0.8073
  3-year OS: 0.8489
  4-year EFS: 0.7997
  4-year OS: 0.8448
  5-year EFS: 0.7955
  5-year OS: 0.8448
[5]
  3-year EFS: 0.8596
  3-year OS: 0.8814
  4-year EFS: 0.8539
  4-year OS: 0.8781
  5-year EFS: 0.8507
  5-year OS: 0.8781
[6]
  3-year EFS: 0.8988
  3-year OS: 0.9074
  4-year EFS: 0.8946
  4-year OS: 0.9048
  5-year EFS: 0.8922
  5-year OS: 0.9048
[7]
  3-year EFS: 0.4399
  3-year OS: 0.6369
  4-year EFS: 0.4255
  4-year OS: 0.6289
  5-year EFS: 0.4176
  5-year OS: 0.6289
[8]
  3-year EFS: 0.3251
  3-year OS: 0.5632
  4-year EFS: 0.3112
  4-year OS: 0.5546
  5-year EFS: 0.3037
  5-year OS: 0.5546
[9]
  3-year EFS: 0.2202
  3-year OS: 0.4846
  4-year EFS: 0.2083
  4-year OS: 0.4756
  5-year EFS: 0.2020
  5-year OS: 0.4756
[10]
  3-year EFS: 0.0743
  3-year OS: 0.3280
  4-year EFS: 0.0683
  4-year OS: 0.3197
  5-year EFS: 0.0652
  5-year OS: 0.3197
High ACS10 score group
  Event-free Survival 5 years: 0.712 ± 0.063
  Overall Survival 5 years: 0.829 ± 0.052
Low ACS10 score group
  Event-free Survival 5 years: 0.421 ± 0.08
  Overall Survival 5 years: 0.579 ± 0.08
[11]
  5 year EFS: 42%
  five-year OS: 57%
[12]
  MRDIND1 Negative (<0.1%): 49^+
  MRDIND1 Positive (>=0.1%): 38^+
[13]
  3-year EFS, model estimate: 89.9%
  3-year OS, model estimate: 90.7%
[14]
  3-year EFS, model estimate: 7.4%
  3-year OS, model estimate: 32.8%
probability, whole arm
  Event-free Survival 5 years: 0.591 ± 0.0518
  Overall Survival 5 years: 0.724 ± 0.047
Within arm, AML02
  EFS HR, low-ACS10 vs high-ACS10 score: 2.81
  OS HR, low-ACS10 vs high-ACS10 score: 2.98
Within arm, risk-adjusted Cox model, AML02
  EFS HR for each one-point increase in ACS10: 0.70
